From ChEMBL document CHEMBL4004803, “Syntheses and antibacterial activity of soluble 9-bromo substituted indolizinoquinoline-5,12-dione derivatives” (Eur J Med Chem, 2017)

Key:
Assay type in all cases: functional
[1] = test system: Staphylococcus aureus; assay: Antibacterial activity against methicillin-resistant Staphylococcus aureus 305026 clinical isolate after 20 to 24 hrs by two-fold microdilution method
[2] = test system: Staphylococcus aureus; assay: Antibacterial activity against methicillin-resistant Staphylococcus aureus ATCC 43300 after 20 to 24 hrs by two-fold microdilution method
[3] = test system: Staphylococcus haemolyticus; assay: Antibacterial activity against Staphylococcus haemolyticus CICC 10373 after 20 to 24 hrs by two-fold microdilution method
[4] = test system: Staphylococcus aureus; assay: Antibacterial activity against methicillin-resistant Staphylococcus aureus 3250299 clinical isolate after 20 to 24 hrs by two-fold microdilution method
[5] = test system: Staphylococcus aureus; assay: Antibacterial activity against methicillin-resistant Staphylococcus aureus 216054 clinical isolate after 20 to 24 hrs by two-fold microdilution method
[6] = test system: Staphylococcus aureus; assay: Antibacterial activity against methicillin-resistant Staphylococcus aureus 122045 clinical isolate after 20 to 24 hrs by two-fold microdilution method
[7] = test system: Staphylococcus aureus; assay: Antibacterial activity against methicillin-resistant Staphylococcus aureus 1111047-1 clinical isolate after 20 to 24 hrs by two-fold microdilution method
[8] = test system: Staphylococcus aureus; assay: Antibacterial activity against […] Staphylococcus aureus ATCC 25923 after 20 to 24 hrs by two-fold microdilution method
[9] = test system: Staphylococcus aureus; assay: Antibacterial activity against methicillin-resistant Staphylococcus aureus 12308 clinical isolate after 20 to 24 hrs by two-fold microdilution method
[10] = test system: Staphylococcus epidermidis; assay: Antibacterial activity against Staphylococcus epidermidis ATCC 12228 after 20 to 24 hrs by two-fold microdilution method
[11] = test system: Staphylococcus aureus; assay: Antibacterial activity against methicillin-resistant Staphylococcus aureus 822030 clinical isolate after 20 to 24 hrs by two-fold microdilution method
[12] = test system: Staphylococcus aureus; assay: Antibacterial activity against methicillin-resistant Staphylococcus aureus 110432 clinical isolate after 20 to 24 hrs by two-fold microdilution method
[13] = test system: Staphylococcus aureus; assay: Antibacterial activity against methicillin-resistant Staphylococcus aureus 1024004-2 clinical isolate after 20 to 24 hrs by two-fold microdilution method
[14] = test system: Staphylococcus aureus; assay: Antibacterial activity against methicillin-resistant Staphylococcus aureus 221014 clinical isolate after 20 to 24 hrs by two-fold microdilution method
[15] = test system: Staphylococcus aureus; assay: Antibacterial activity against methicillin-resistant Staphylococcus aureus 125025 clinical isolate after 20 to 24 hrs by two-fold microdilution method
[16] = test system: Staphylococcus aureus; assay: Antibacterial activity against methicillin-resistant Staphylococcus aureus 10844 clinical isolate after 20 to 24 hrs by two-fold microdilution method
[17] = test system: Staphylococcus aureus; assay: Antibacterial activity against methicillin-resistant Staphylococcus aureus 1026211 clinical isolate after 20 to 24 hrs by two-fold microdilution method
[18] = test system: Staphylococcus aureus; assay: Antibacterial activity against methicillin-resistant Staphylococcus aureus 103054 clinical isolate after 20 to 24 hrs by two-fold microdilution method
[19] = test system: Staphylococcus aureus; assay: Antibacterial activity against methicillin-resistant Staphylococcus aureus 625032 clinical isolate after 20 to 24 hrs by two-fold microdilution method
[20] = test system: Staphylococcus aureus; assay: Antibacterial activity against methicillin-resistant Staphylococcus aureus 1019240 clinical isolate after 20 to 24 hrs by two-fold microdilution method
[21] = test system: Staphylococcus aureus; assay: Antibacterial activity against methicillin-resistant Staphylococcus aureus 122710-2 clinical isolate after 20 to 24 hrs by two-fold microdilution method
[22] = test system: Staphylococcus aureus; assay: Antibacterial activity against methicillin-resistant Staphylococcus aureus 1107027 clinical isolate after 20 to 24 hrs by two-fold microdilution method
[23] = test system: Staphylococcus aureus; assay: Antibacterial activity against methicillin-resistant Staphylococcus aureus 11703 clinical isolate after 20 to 24 hrs by two-fold microdilution method
[24] = test system: Staphylococcus aureus; assay: Antibacterial activity against methicillin-resistant Staphylococcus aureus 121969 clinical isolate after 20 to 24 hrs by two-fold microdilution method
[25] = test system: Staphylococcus aureus; assay: Antibacterial activity against methicillin-resistant Staphylococcus aureus GLH15 clinical isolate after 20 to 24 hrs by two-fold microdilution method
[26] = test system: Staphylococcus aureus; assay: Antibacterial activity against methicillin-resistant Staphylococcus aureus 519028 clinical isolate after 20 to 24 hrs by two-fold microdilution method
[27] = test system: Staphylococcus aureus; assay: Antibacterial activity against methicillin-resistant Staphylococcus aureus 1026021 clinical isolate after 20 to 24 hrs by two-fold microdilution method
[28] = test system: Staphylococcus aureus; assay: Antibacterial activity against methicillin-resistant Staphylococcus aureus 110910-2 clinical isolate after 20 to 24 hrs by two-fold microdilution method
[29] = test system: Staphylococcus aureus; assay: Antibacterial activity against methicillin-resistant Staphylococcus aureus 121026 clinical isolate after 20 to 24 hrs by two-fold microdilution method
[30] = test system: Staphylococcus aureus; assay: Antibacterial activity against methicillin-resistant Staphylococcus aureus 504008 clinical isolate after 20 to 24 hrs by two-fold microdilution method
[31] = test system: Staphylococcus aureus; assay: Antibacterial activity against methicillin-resistant Staphylococcus aureus 1029025 clinical isolate after 20 to 24 hrs by two-fold microdilution method
[32] = test system: Staphylococcus aureus; assay: Antibacterial activity against methicillin-resistant Staphylococcus aureus 919205 clinical isolate after 20 to 24 hrs by two-fold microdilution method
[33] = test system: Staphylococcus aureus; assay: Antibacterial activity against methicillin-resistant Staphylococcus aureus 921026 clinical isolate after 20 to 24 hrs by two-fold microdilution method
[34] = test system: Staphylococcus aureus; assay: Antibacterial activity against methicillin-resistant Staphylococcus aureus 30116-1 clinical isolate after 20 to 24 hrs by two-fold microdilution method
[35] = test system: Staphylococcus aureus; assay: Antibacterial activity against methicillin-resistant Staphylococcus aureus 831024 clinical isolate after 20 to 24 hrs by two-fold microdilution method
[36] = test system: Staphylococcus aureus; assay: Antibacterial activity against methicillin-resistant Staphylococcus aureus 814039 clinical isolate after 20 to 24 hrs by two-fold microdilution method
[37] = test system: Staphylococcus aureus; assay: Antibacterial activity against methicillin-resistant Staphylococcus aureus 1128040 clinical isolate after 20 to 24 hrs by two-fold microdilution method
[38] = test system: Staphylococcus aureus; assay: Antibacterial activity against methicillin-resistant Staphylococcus aureus 11819 clinical isolate after 20 to 24 hrs by two-fold microdilution method
[39] = test system: Staphylococcus aureus; assay: Antibacterial activity against methicillin-resistant Staphylococcus aureus 112047 clinical isolate after 20 to 24 hrs by two-fold microdilution method
[40] = test system: Staphylococcus aureus; assay: Antibacterial activity against methicillin-resistant Staphylococcus aureus 1108204 clinical isolate after 20 to 24 hrs by two-fold microdilution method
[41] = test system: Staphylococcus aureus; assay: Antibacterial activity against methicillin-resistant Staphylococcus aureus 1101016 clinical isolate after 20 to 24 hrs by two-fold microdilution method
[42] = test system: Streptococcus pneumoniae; assay: Antibacterial activity against Streptococcus pneumoniae ATCC 6305 after 20 to 24 hrs by two-fold microdilution method
[43] = test system: Staphylococcus aureus; assay: Antibacterial activity against methicillin-resistant Staphylococcus aureus 118038 clinical isolate after 20 to 24 hrs by two-fold microdilution method
[44] = test system: Staphylococcus aureus; assay: Antibacterial activity against methicillin-resistant Staphylococcus aureus 122820-2 clinical isolate after 20 to 24 hrs by two-fold microdilution method
[45] = test system: Staphylococcus aureus; assay: Antibacterial activity against methicillin-resistant Staphylococcus aureus 614019 clinical isolate after 20 to 24 hrs by two-fold microdilution method
[46] = test system: Staphylococcus aureus; assay: Antibacterial activity against methicillin-resistant Staphylococcus aureus 1023043 clinical isolate after 20 to 24 hrs by two-fold microdilution method
[47] = test system: Staphylococcus aureus; assay: Antibacterial activity against methicillin-resistant Staphylococcus aureus 829034 clinical isolate after 20 to 24 hrs by two-fold microdilution method

Measured: MIC

CN1CCN(CCCCCCOC(=O)c2c3c(n4cc(Br)ccc24)C(=O)c2ncccc2C3=O)CC1
0.25 µg/mL: [1] | [11] | [13] | [20] | [22] | [23] | [39] | [41] | [43]
0.031 µg/mL: [18] | [29]
1 µg/mL: [7]
0.125 µg/mL: [5] | [12] | [14] | [19] | [24] | [25] | [26] | [28] | [30] | [32] | [34] | [45] | [46]
0.5 µg/mL: [36] | [40] | [42] | [47]
16 µg/mL: [27]
≤ 7.8 ng/mL: [2] | [8] | [10] | [15] | [16] | [17] | [33] | [35]
0.063 µg/mL: [3] | [4] | [6] | [9] | [21] | [31] | [37] | [38] | [44]
